Reference: article PMC8734228 (Cancer discovery, 2021)
Read-outs that look alike come from different tables or passages of the source.

What was measured:
FLC1,3,5 cells = test: Synergy assay, combination matrix with panobinostat; format: cell-based, human
ErbB2 = settings: read-out: IC50 ErbB2; cited from earlier work
FLC PDX cells = test: Validation screen on cells dissociated from FLC PDX; format: cell-based, human; settings: for Effect on FLC PDX cells in vitro (dose response, normalized percent survival): 10nM-10μM, FLC1-6; for Effect on FLC PDX cells in vitro (dose response, normalized percent survival) / EC50: 72 h; for Efficacy ranking in the screen: ranked by average −log10EC50 for FLC1-5 minus −log10EC50 for PHH; for Therapeutic window for FLC over PHH: FLC PDX cells compared with PHH
FLC1 PDX cells = test: Validation screen, 11-point dose response, 72 h, Cell Titer Glo; format: cell-based, human; settings: read-out: EC50 FLC
[1] = system: primary human hepatocytes (PHH); test: Validation counter-screen on primary human hepatocytes; settings: 72 h; for EC50: read-out: EC50 PHH; for Effect on PHH (dose response, normalized percent survival): up to 10 μM
FLC2 PDX cells = test: Validation screen, 11-point dose response, 72 h, Cell Titer Glo; format: cell-based, human; settings: read-out: EC50 FLC
FLC3 PDX cells = test: as above; format: cell-based, human; settings: read-out: EC50 FLC
FLC5 PDX cells = test: as above; format: cell-based, human; settings: read-out: EC50 FLC
FLC4 PDX cells = test: as above; format: cell-based, human; settings: read-out: EC50 FLC
FLC5 cells = test: Anchor screen, synergy assay; format: cell-based, human; settings: FLC5, ZIP, Bliss and HSA scores
AURKA = settings: read-out: IC50 AURKA; cited from earlier work
PAK 1 = settings: read-out: IC50 PAK 1; cited from earlier work
PAK 2 = settings: read-out: IC50 PAK 2; cited from earlier work
PAK 3 = settings: read-out: IC50 PAK 3; cited from earlier work
PKA = settings: read-out: Ki PKA; cited from earlier work
PKG = settings: read-out: Ki against other kinases: PKG; cited from earlier work
EGFR = settings: read-out: IC50 EGFR; cited from earlier work
[2] = system: cells dissociated directly from patient tumors (FLC.T6-T11); test: Direct from patient in vitro screening; format: cell-based, human; settings: for Sensitivity of cells tested directly from patients: 10μM-10nM, 72h, Cell Titer Glo; for Drug sensitivity of FLC.T6 compared with derived PDX FLC6 (EC50): cells direct from patient tumor vs cells from its PDX
FLC1 cells = test: Role of ROS: survival with or without N-acetyl cysteine 10mM; format: cell-based, human; settings: NAC 10mM, 72 h
Akt3 = settings: read-out: Ki against other kinases: Akt3; cited from earlier work
Akt1 = settings: read-out: Ki against other kinases: Akt1; cited from earlier work
mTOR = settings: read-out: IC50 mTOR; cited from earlier work
FLC patients = settings: two FLC patients, clinical trial ref 10; cited from earlier work
FLC1 PDX = test: In vivo drug testing in mice bearing PDX FLC1
[3] = system: eIF4F sensitive proteins in FLC6 cells; test: Immunoblot of eIF4F sensitive protein levels; format: cell-based, human
FLC PDX = test: In vivo drug testing of HDAC inhibitors in mice bearing PDX
[4] = system: cells dissociated from PDX FLC1 and FLC5; test: Primary high throughput screen, 1μM, 72 h; format: cell-based, human; settings: pass = survival <60%
[5] = napabucasin 10mg/kg IP, 5 days on 2 days off, FLC1
[6] = napabucasin 10mg/kg IP, 14 days
[7] = napabucasin 10mg/kg, after 14 days

Cc1c(-c2ccc(N3CCc4cccc(C(=O)Nc5nc6ccccc6s5)c4C3)nc2C(=O)O)cnn1CC12CC3CC(CC(C3)C1)C2 [A1331852]
Synergy with panobinostat (ZIP synergy score) (FLC1,3,5 cells): synergized

Cc1c2c(nn1C)CSCc1cc(n(C)n1)CSc1cc(c3ccccc3c1)OCCCc1c(C(=O)O)n(C)c3c-2c(Cl)ccc13 [AZD5991]
Synergy with panobinostat (ZIP synergy score) (FLC1,3,5 cells): more modest synergy

COCC(=O)NC/C=C/c1ccc2ncnc(Nc3ccc(Oc4ccc(C)nc4)c(C)c3)c2c1 [CP-724714]
IC50 (ErbB2): 10 nM
Effect on FLC PDX cells in vitro (dose response, normalized percent survival) (FLC PDX cells): no effect

NC1(C(=O)N[C@@H](CCO)c2ccc(Cl)cc2)CCN(c2nc[nH]c3nccc2-3)CC1 [Capivasertib (AZD5363), Capivasertib]
EC50 (FLC1 PDX cells; FLC1, 72 h): 2980 nM
EC50 [1]: > 10000 nM
EC50 (FLC2 PDX cells; FLC2, 72 h): 3850 nM
EC50 (FLC3 PDX cells; FLC3, 72 h): 5150 nM
EC50 (FLC5 PDX cells; FLC5, 72 h): 12600 nM
EC50 (FLC4 PDX cells; FLC4, 72 h): 2090 nM

Cc1cc(Nc2cc(N3CCN(C)CC3)nc(/C=C/c3ccccc3)n2)n[nH]1 [ENMD-2076]
Synergy with A1331852 (FLC5 cells): All drugs, apart from ENMD-2076 and uprosertib, showed some synergy
EC50 (FLC PDX cells; Homo sapiens, read-out: EC50 against the PDX cells): > 5000 nM
Efficacy ranking in the screen (FLC PDX cells): 123

CCn1c(=O)c(-c2ccc(-c3cncs3)cc2Cl)cc2cnc(Nc3ccc(N4CCN(C)CC4)cc3)nc21 [FRAX567]
IC50 (PAK 1): 8 nM
Effect on FLC PDX cells in vitro (dose response, normalized percent survival) (FLC PDX cells): consistent inhibition against all PDX
Efficacy ranking in the screen (FLC PDX cells): 12
IC50 (PAK 3): 19 nM

O=S(=O)(NCCNC/C=C/c1ccc(Br)cc1)c1cccc2cnccc12 [H89]
EC50 (FLC1 PDX cells; FLC1, 72 h): 5820 nM
EC50 [1]: 41500 nM
Ki (PKA): 48 nM
Ki (PKG): 480 nM
EC50 (FLC2 PDX cells; FLC2, 72 h): 23900 nM
EC50 (FLC3 PDX cells; FLC3, 72 h): 18200 nM
EC50 (FLC5 PDX cells; FLC5, 72 h): 9490 nM
EC50 (FLC4 PDX cells; FLC4, 72 h): 20900 nM
Therapeutic window for FLC over PHH (FLC PDX cells): no therapeutic window

CCOc1cc2ncc(C#N)c(Nc3ccc(OCc4ccccn4)c(Cl)c3)c2cc1NC(=O)/C=C/CN(C)C [Neratinib]
IC50 (ErbB2): 59 nM
IC50 (EGFR): 92 nM
Sensitivity of cells tested directly from patients [2]: no effect on three others
Drug sensitivity of FLC.T6 compared with derived PDX FLC6 (EC50) [2]: correlated well
Effect on FLC PDX cells in vitro (dose response, normalized percent survival) (FLC PDX cells): affected FLC1,5 in the micromolar range

CCc1c2c(nc3ccc(O)cc13)-c1cc3c(c(=O)n1C2)COC(=O)[C@]3(O)CC [SN-38]
Effect of N-acetyl cysteine (NAC) on the toxicity of the drug (FLC1 cells): no effect
Sensitivity of cells tested directly from patients [2]: sensitive
Drug sensitivity of FLC.T6 compared with derived PDX FLC6 (EC50) [2]: correlated well
Effect on FLC PDX cells in vitro (dose response, normalized percent survival) (FLC PDX cells): effective only against FLC1,3,4
Efficacy ranking in the screen (FLC PDX cells): 13

Cn1ncc(Cl)c1-c1cc(C(=O)N[C@H](CN)Cc2ccc(F)c(F)c2)oc1Cl [Uprosertib (GSK2141795), Uprosertib]
EC50 (FLC1 PDX cells; Homo sapiens, 72 h): 49 nM
EC50 ([1]; Homo sapiens, Hepatocyte): > 10000 nM
Synergy with A1331852 (FLC5 cells): All drugs, apart from ENMD-2076 and uprosertib, showed some synergy
Synergy with navitoclax (FLC5 cells): now synergized
Ki (PKA): 2 nM
Ki (Akt3): 38 nM
EC50 (FLC2 PDX cells; Homo sapiens, 72 h): 5040 nM
EC50 (FLC3 PDX cells; Homo sapiens, 72 h): 870 nM
EC50 (FLC5 PDX cells; Homo sapiens, 72 h): 1720 nM
Ki (Akt1): 180 nM
EC50 (FLC4 PDX cells; Homo sapiens, 72 h): 910 nM
Sensitivity of cells tested directly from patients [2]: some sensitivity
Efficacy ranking in the screen (FLC PDX cells): 28

C=CC(=O)N1CC/C(=C\c2ccc(F)c([N+](=O)[O-])c2)C(=O)/C(=C/c2ccc(F)c([N+](=O)[O-])c2)C1 [VLX1570]
Effect of N-acetyl cysteine (NAC) on the toxicity of the drug (FLC1 cells): completely abrogated
Sensitivity of cells tested directly from patients [2]: blunted response
Drug sensitivity of FLC.T6 compared with derived PDX FLC6 (EC50) [2]: outliers
Efficacy ranking in the screen (FLC PDX cells): 31

CO[C@H]1C[C@@H]2CC[C@@H](C)[C@@](O)(O2)C(=O)C(=O)N2CCCC[C@H]2C(=O)O[C@H]([C@H](C)C[C@@H]2CC[C@@H](OCCO)[C@H](OC)C2)CC(=O)[C@H](C)/C=C(\C)[C@@H](O)[C@@H](OC)C(=O)[C@H](C)C[C@H](C)/C=C/C=C/C=C/1C [everolimus]
Synergy with A1331852 (FLC5 cells): some synergy
IC50 (mTOR): 1.6 to 2.4 nM

CN1CC[C@H](c2c(O)cc(O)c3c(=O)cc(-c4ccccc4Cl)oc23)[C@H](O)C1 [flavopiridol]
Effect on PHH (dose response, normalized percent survival) [1]: toxic
Duration of stable disease (FLC patients): 17 months
Sensitivity of cells tested directly from patients [2]: some sensitivity

CC(=O)[C@]1(O)Cc2c(O)c3c(c(O)c2[C@@H](O[C@H]2C[C@H](N)[C@H](O)[C@H](C)O2)C1)C(=O)c1ccccc1C3=O [idarubicin]
Synergy with A1331852 (FLC5 cells): some synergy
Effect on FLC PDX cells in vitro (dose response, normalized percent survival) (FLC PDX cells): showed an effect on some of the FLC PDX

CC(=O)c1cc2c(o1)C(=O)c1ccccc1C2=O [napabucasin]
Effect on PHH (dose response, normalized percent survival) [1]: no detectable effect
Effect of N-acetyl cysteine (NAC) on the toxicity of the drug (FLC1 cells): partially attenuated
Tumor growth at 7 days (FLC1 PDX; [5]): 44%
Tumor growth at 14 days (FLC1 PDX; [5]): 52%
Average weight loss (FLC1 PDX; [6]): 6.7%
Ratio of tumor volume:mouse weight (FLC1 PDX; [6]): stable or decreased
Mitotic figures, Ki67 and pHH3 positive cells in tumors (FLC1 PDX; [7]): decrease
TUNEL positive cells in tumors (FLC1 PDX; [7]): small increase
c-Myc levels ([3]; 1 μM napabucasin, FLC cells, GAPDH control): dramatic decrease
Levels of MDM2, Bcl-xL, MCL1 and Cyclin D1 ([3]; napabucasin 1μM or 2μM, FLC6 cells): lowered the levels
Sensitivity of cells tested directly from patients [2]: sensitive
Drug sensitivity of FLC.T6 compared with derived PDX FLC6 (EC50) [2]: correlated well

Cn1cc(CNCC2CCN(c3ncc(C(=O)NO)cn3)CC2)c2ccccc21 [quisinostat]
Effect of N-acetyl cysteine (NAC) on the toxicity of the drug (FLC1 cells): mildly attenuated
Tumor growth at 14 days (FLC PDX; 10mg/kg IP): 7%
Apoptosis as assayed by TUNEL (FLC PDX; 10mg/kg, after 14 days): no significant increase
Mitotic figures, Ki67 and pHH3 positive cells in tumors (FLC PDX; 10mg/kg, after 14 days): almost complete disappearance
Macroscopic assessment of tumors (FLC PDX; quisinostat 10mg/kg daily IP, 14 days): necrosis in the drug treated tumors
Sensitivity of cells tested directly from patients [2]: sensitive

Cc1ccc(NC2=CC(=O)c3sc(C)nc3C2=O)cc1 [ryuvidine]
EC50 [1]: > 10000 nM
Effect of N-acetyl cysteine (NAC) on the toxicity of the drug (FLC1 cells): completely abrogated
Effect on FLC PDX cells in vitro (dose response, normalized percent survival) (FLC PDX cells): effective against all PDX lines
Efficacy ranking in the screen (FLC PDX cells): third
EC50 (FLC PDX cells; read-out: EC50 against FLC PDX in vitro, across all FLC PDX lines): 20 to 200 nM

CC[C@@]1(O)C(=O)OCc2c1cc1n(c2=O)Cc2cc3c(CN(C)C)c(O)ccc3nc2-1 [topotecan]
Synergy with A1331852 (FLC5 cells): some synergy

CC(=O)Nc1cccc(-n2c(=O)n(C3CC3)c(=O)c3c(Nc4ccc(I)cc4F)n(C)c(=O)c(C)c32)c1 [trametinib]
Result in primary screen (normalized percent survival) [4]: None
Synergy with A1331852 (FLC5 cells): some synergy

CC1(C)CCC(CN2CCN(c3ccc(C(=O)NS(=O)(=O)c4ccc(NCC5CCOCC5)c([N+](=O)[O-])c4)c(Oc4cnc5[nH]ccc5c4)c3)CC2)=C(c2ccc(Cl)cc2)C1 [venetoclax]
Synergy with panobinostat (ZIP synergy score) (FLC1,3,5 cells): no synergy
Effect on FLC PDX cells in vitro (dose response, normalized percent survival) (FLC PDX cells): minimal activity
Efficacy ranking in the screen (FLC PDX cells): towards the bottom of the ranking

CNC(=O)c1cccc(-c2ccc3c(N4CCOC[C@@H]4C)nc(N4CCOC[C@@H]4C)nc3n2)c1 [visusertib]
Synergy with A1331852 (FLC5 cells): some synergy

Aurora Kinase Inhibitor I
IC50 (AURKA): 3.4 nM
EC50 (FLC PDX cells; read-out: EC50 against the PDX cells): 1000 to 4000 nM

SBI-0640756
Effect of N-acetyl cysteine (NAC) on the toxicity of the drug (FLC1 cells): completely abrogated
Sensitivity of cells tested directly from patients [2]: sensitive
Therapeutic window for FLC over PHH (FLC PDX cells): clear therapeutic window
Efficacy ranking in the screen (FLC PDX cells): 19
